Experimental data: patent US12202818B2, “Compounds and methods for CD73 modulation and indications therefor” (Opna Bio SA, priority 2020, dated 2025)

Tests used:
[1] = target: T1, human CD73 (Homo sapiens, UniProt P21589); test: Inhibitor activity against CD73 in cell based assay (CD73 expressing CHO-K1 cells); details: CHO-K1 cells expressing human CD73, 150 μM AMP, 4 hours of incubation; read-out: CHO-K1 CELL_VARIANT: CD73 IC50
T1 construct: expressed in transfected cells
T1 sequence (P21589 27-549): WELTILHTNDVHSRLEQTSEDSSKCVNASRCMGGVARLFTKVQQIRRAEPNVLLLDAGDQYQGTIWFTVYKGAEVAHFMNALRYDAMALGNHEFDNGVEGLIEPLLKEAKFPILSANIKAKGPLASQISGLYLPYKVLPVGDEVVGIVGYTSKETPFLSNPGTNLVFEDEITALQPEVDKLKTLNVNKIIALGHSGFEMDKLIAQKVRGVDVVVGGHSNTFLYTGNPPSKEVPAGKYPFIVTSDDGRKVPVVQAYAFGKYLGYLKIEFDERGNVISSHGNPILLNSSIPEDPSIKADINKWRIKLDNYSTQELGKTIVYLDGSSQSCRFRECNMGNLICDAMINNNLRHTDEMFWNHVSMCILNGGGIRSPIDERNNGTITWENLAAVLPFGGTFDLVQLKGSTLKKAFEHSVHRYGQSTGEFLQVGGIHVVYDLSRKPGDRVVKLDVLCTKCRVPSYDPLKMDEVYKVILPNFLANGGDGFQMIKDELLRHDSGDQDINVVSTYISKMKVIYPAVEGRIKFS
Protocol: Determine Inhibitor Activity Against CD73 in Cell Based Assay
CD73 expressing CHO-K1 cell clones were generated upon stable transfection of a plasmid expressing human CD73 under the control of CMV promoter. Cells were selected in Ham's F-12K (Kaighn's) media supplemented with 10% fetal bovine serum and 1 mg/ml G418 at 37° C. in a humidified incubator supplied with 5% CO2. The assays were performed as follows. Cells were seeded in a 96 well plate in 50 μL of culture media at a density of 1×10^4 per well. Compound at a maximal concentration of 5 mM was serially diluted 1:3 in DMSO for a total of 8 point titration. A 2 μL aliquot of each dilution point was added to […] culture media and 25 µL was added to each well, providing 10 μM compound at the maximum concentration point. AMP was diluted in culture media and 25 μL was added to each well with a final concentration of 150 μM. 4 wells containing 0.2% DMSO treated cells and AMP served as high controls and 4 wells containing media only with 0.2% DMSO and AMP served as low controls. After 4 hours of incubation, 20 μL of the supernatant was transferred to a 384 well plate. AMP level in supernatant was measured indirectly by adding 5 μL of CellTiter-Glo® 2.0 reagent and 5 μL of ATP with a final concentration of 1 μM. Following incubation of plate at room temperature for 30 minutes, luminescent signal was read on a Tecan plate reader. The percentage inhibition at individual concentrations relative to high and low controls was calculated. The data were analyzed by using nonlinear regression to generate ICso values.

[2] = target: T2, Human CD73 (amino acid residues 27-549) (Homo sapiens, UniProt P21589); test: CD73 enzymatic assay (luciferase-based indirect assay, CellTiter-Glo); format: biochemical; details: 0.4 nM CD73, 150 μM AMP, 1 hour at room temperature
T2 construct: Human CD73 (amino acid residues 27-549); His tag (N); made in house; host or cells: E. coli
T2 sequence (P21589 27-549): T1 sequence (P21589 27-549)
Protocol: CD73 enzymatic activity was measured in a luciferase-based indirect assay using CellTiter-Glo® system from Promega. The luciferase reaction in the presence of ATP is inhibited by AMP, a primary substrate of CD73. Addition of CD73 enzyme to the reaction converts AMP to adenosine, and release the inhibition, producing a luminescent signal. Inhibition of CD73 leads to the decrease of this luminescent signal.
Human CD73 (amino acid residues 27-549) with N-Terminal His tag was purified in E. coli. All the assay components were prepared in 50 mM HEPEs buffer (pH 7.4) with 0.01% Tween-20. The CD73 enzymatic assay was performed using 0.4 nM CD73 and 150 μM AMP. 9.5 μL of CD73 protein and 9.5 μL of AMP were added to the wells of a 384 well plate containing lpL of various concentrations of test compound or DMSO vehicle and incubated for 1 hour at room temperature. 16 wells containing CD73, AMP and 5% DMSO served as high control. 16 wells containing AMP and 5% DMSO served as low control. Enzymatic reaction was stopped and AMP level was measured indirectly by adding 5 μL of CellTiter-Glo® 2.0 reagent and 5 μL of ATP with a final concentration of 1 μM. Following incubation of the plate at room temperature for 30 minutes, luminescent signal was read on a Tecan plate reader. The percentage inhibition at individual concentrations relative to high and low controls was calculated. The data were analyzed by using nonlinear regression to generate IC50 values.

SMILES	IC50 [1]	IC50 [2]
Cc1nn(C2(CC(N)=O)CCC2)c(C)c1-c1ccnc(O[C@@H]2CCN(c3cn[nH]c(=O)c3Cl)C2)c1 [P-0035, (R)-2-(1-(4-(2-((1-(5-chloro-6-oxo-1,6-dihydropyridazin-4-yl)pyrrolidin-3-yl)oxy)pyridin-4-yl)-3,5-dimethyl-1H-pyrazol-1-yl)cyclobutyl)acetamide]	0.001 to 10 µM	0.001 to 10 µM
Cc1nn(C2(CC#N)CCC2)c(C)c1-c1ccnc(O[C@@H]2CCN(c3cn[nH]c(=O)c3Cl)C2)c1 [P-0036, (R)-2-(1-(4-(2-((1-(5-chloro-6-oxo-1,6-dihydropyridazin-4-yl)pyrrolidin-3-yl)oxy)pyridin-4-yl)-3,5-dimethyl-1H-pyrazol-1-yl)cyclobutyl)acetonitrile]	0.001 to 10 µM	0.001 to 10 µM
Cc1nn(CC(C)(C)O)c(C)c1-c1cc(O[C@@H]2CCN(c3cn[nH]c(=O)c3Cl)C2)ncn1 [P-0037, (R)-4-chloro-5-(3-((6-(1-(2-hydroxy-2-methylpropyl)-3,5-dimethyl-1H-pyrazol-4-yl)pyrimidin-4-yl)oxy)pyrrolidin-1-yl)pyridazin-3(2H)-one]	0.001 to 10 µM	0.001 to 10 µM
Cc1nn(CC(C)(C)O)c(C)c1-c1ccnc(O[C@@H]2CCN(c3cn[nH]c(=O)c3Cl)C2)c1 [P-0038, (R)-4-chloro-5-(3-((4-(1-(2-hydroxy-2-methylpropyl)-3,5-dimethyl-1H-pyrazol-4-yl)pyridin-2-yl)oxy)pyrrolidin-1-yl)pyridazin-3(2H)-one]	0.001 to 10 µM	0.001 to 10 µM
Cc1nn(CC(O)C(F)(F)F)c(C)c1-c1ccnc(O[C@@H]2CCN(c3cn[nH]c(=O)c3Cl)C2)c1 (stereo partly drawn) [P-0039, 4-chloro-5-((3R)-3-((4-(3,5-dimethyl-1-(3,3,3-trifluoro-2-hydroxypropyl)-1H-pyrazol-4-yl)pyridin-2-yl)oxy)pyrrolidin-1-yl)pyridazin-3(2H)-one]	0.001 to 10 µM	0.001 to 10 µM
Cc1nn(CC(=O)NC2CC2)c(C)c1-c1ccnc(O[C@@H]2CCN(c3cn[nH]c(=O)c3Cl)C2)c1 [P-0040, (R)-2-(4-(2-((1-(5-chloro-6-oxo-1,6-dihydropyridazin-4-yl)pyrrolidin-3-yl)oxy)pyridin-4-yl)-3,5-dimethyl-1H-pyrazol-1-yl)-N-cyclopropylacetamide]	0.001 to 10 µM	0.001 to 10 µM
CNC(=O)Cn1nc(C)c(-c2ccnc(O[C@@H]3CCN(c4cn[nH]c(=O)c4Cl)C3)c2)c1C [P-0041, (R)-2-(4-(2-((1-(5-chloro-6-oxo-1,6-dihydropyridazin-4-yl)pyrrolidin-3-yl)oxy)pyridin-4-yl)-3,5-dimethyl-1H-pyrazol-1-yl)-N-methylacetamide]	0.001 to 10 µM	0.001 to 10 µM
Cc1nn(CC2CCCO2)c(C)c1-c1ccnc(O[C@@H]2CCN(c3cn[nH]c(=O)c3Cl)C2)c1 (stereo partly drawn) [P-0042, 4-chloro-5-((3R)-3-((4-(3,5-dimethyl-1-((tetrahydrofuran-2-yl)methyl)-1H-pyrazol-4-yl)pyridin-2-yl)oxy)pyrrolidin-1-yl)pyridazin-3(2H)-one]	0.001 to 10 µM	0.001 to 10 µM
Cc1nn(CC2CCCOC2)c(C)c1-c1ccnc(O[C@@H]2CCN(c3cn[nH]c(=O)c3Cl)C2)c1 (stereo partly drawn) [P-0043, 4-chloro-5-((3R)-3-((4-(3,5-dimethyl-1-((tetrahydro-2H-pyran-3-yl)methyl)-1H-pyrazol-4-yl)pyridin-2-yl)oxy)pyrrolidin-1-yl)pyridazin-3(2H)-one]	0.001 to 10 µM	0.001 to 10 µM
Cc1nn(CCC#N)c(C)c1-c1ccnc(O[C@@H]2CCN(c3cn[nH]c(=O)c3Cl)C2)c1 [P-0044, (R)-3-(4-(2-((1-(5-chloro-6-oxo-1,6-dihydropyridazin-4-yl)pyrrolidin-3-yl)oxy)pyridin-4-yl)-3,5-dimethyl-1H-pyrazol-1-yl)propanenitrile]	0.001 to 10 µM	0.001 to 10 µM
Cc1nn(CC(=O)O)c(C)c1-c1ccnc(O[C@@H]2CCN(c3cn[nH]c(=O)c3Cl)C2)c1 [P-0045, (R)-2-(4-(2-((1-(5-chloro-6-oxo-1,6-dihydropyridazin-4-yl)pyrrolidin-3-yl)oxy)pyridin-4-yl)-3,5-dimethyl-1H-pyrazol-1-yl)acetic acid]	0.001 to 10 µM	0.001 to 10 µM
N#CC1CCC(c2ccnc(O[C@@H]3CCN(c4cnn(CCO)c(=O)c4Cl)C3)c2)CC1 (stereo partly drawn) [P-0046, (R)-4-(2-((1-(5-chloro-1-(2-hydroxyethyl)-6-oxo-1,6-dihydropyridazin-4-yl)pyrrolidin-3-yl)oxy)pyridin-4-yl)cyclohexane-1-carbonitrile]	0.001 to 10 µM	0.001 to 10 µM
O=C(O)C1CCC(c2ccnc(O[C@@H]3CCN(c4cn[nH]c(=O)c4Cl)C3)c2)CC1 (stereo partly drawn) [P-0047, (R)-4-(2-((1-(5-chloro-6-oxo-1,6-dihydropyridazin-4-yl)pyrrolidin-3-yl)oxy)pyridin-4-yl)cyclohexane-1-carboxylic acid]	0.001 to 10 µM	0.001 to 10 µM
O=c1[nH]ncc(N2CC[C@@H](Oc3cc(C4CCN(CC(F)(F)F)CC4)ccn3)C2)c1Cl [P-0048, (R)-4-chloro-5-(3-((4-(1-(2,2,2-trifluoroethyl)piperidin-4-yl)pyridin-2-yl)oxy)pyrrolidin-1-yl)pyridazin-3(2H)-one]	0.001 to 10 µM	0.001 to 10 µM
N#CC1CC2CCC(C1)N2c1ccnc(O[C@@H]2CCN(c3cn[nH]c(=O)c3Cl)C2)c1 (stereo partly drawn) [P-0049, 8-(2-(((R)-1-(5-chloro-6-oxo-1,6-dihydropyridazin-4-yl)pyrrolidin-3-yl)oxy)pyridin-4-yl)-8-azabicyclo[3.2.1]octane-3-carbonitrile]	0.001 to 10 µM	0.001 to 10 µM
O=C(O)C1CC=C(c2ccnc(O[C@@H]3CCN(c4cn[nH]c(=O)c4Cl)C3)c2)CC1 (stereo partly drawn) [P-0050, 4-(2-(((R)-1-(5-chloro-6-oxo-1,6-dihydropyridazin-4-yl)pyrrolidin-3-yl)oxy)pyridin-4-yl)cyclohex-3-ene-1-carboxylic acid]	0.001 to 10 µM	0.001 to 10 µM
Cc1noc(C)c1-c1ccnc(O[C@@H]2CCN(c3cn[nH]c(=O)c3C(F)(F)F)C2)c1 [P-0051, (R)-5-(3-((4-(3,5-dimethylisoxazol-4-yl)pyridin-2-yl)oxy)pyrrolidin-1-yl)-4-(trifluoromethyl)pyridazin-3(2H)-one]	0.001 to 10 µM	0.001 to 10 µM
Cc1nn(CC2CC(C#N)C2)c(C)c1-c1cc(O[C@@H]2CCN(c3cn[nH]c(=O)c3Cl)C2)ncn1 (stereo partly drawn) [P-0052, (R)-3-((4-(6-((1-(5-chloro-6-oxo-1,6-dihydropyridazin-4-yl)pyrrolidin-3-yl)oxy)pyrimidin-4-yl)-3,5-dimethyl-1H-pyrazol-1-yl)methyl)cyclobutane-1-carbonitrile]	10 to 100 µM	0.001 to 10 µM
CCC1(Cn2nc(C)c(-c3ccnc(O[C@@H]4CCN(c5cn[nH]c(=O)c5Cl)C4)c3)c2C)COC1 [P-0054, (R)-4-chloro-5-(3-((4-(1-((3-ethyloxetan-3-yl)methyl)-3,5-dimethyl-1H-pyrazol-4-yl)pyridin-2-yl)oxy)pyrrolidin-1-yl)pyridazin-3(2H)-one]	0.001 to 10 µM	0.001 to 10 µM
